Tests used:
254 Japanese subjects [1] = system: 254 Japanese subjects; set-up: method as in PMID 11839608; settings: humans; cited from earlier work
254 Japanese subjects [2] = experiment: Taste recognition threshold measurement (staircase method); assay type: in vivo, human; settings: for mean recognition threshold by Gaussian fit analysis: center±S.E. of gaussian curve
Excerpt: A total of 254 healthy, non-obese, non-diabetic Japanese volunteers [male/female: 141/113, age: 20–36, body mass index (BMI); 16.5–24.8] participated in this study. The purpose of the study as well as the methods and procedure were explained to the participants and the patients in this manuscript have given written informed consent. All protocols were approved by the local ethics committee at Kyushu University. Subjects were asked to refrain from consuming alcohol the day before testing, caffeine on the day of testing, and food during the experimentation period. The inclusion criteria were satisfactory state of oral hygiene, non-smoking, regular work, sleep, and meal schedules.
As MSG contains sodium, great care was taken to compare individual sensitivities to MSG relative to NaCl. […] The differences in concentrations in the present study were in 0.3 log steps, which mean step-wise increases in concentration by a factor of 2.0. All solutions were made up in distilled water and used at room temperature. The testing procedure was the staircase-method modified from Pasquet et al.. Each subject evaluated all 7 tastants. The seven series of solutions were presented one after another within a single section. Within each series, the solutions with each 2.0 ml were applied to the whole tongue of each subject with a pipet in order of ascending concentrations. The subjects were asked not to swallow test solutions and rinse their mouth between two solutions with distilled water. The subject was requested to correctly name the taste quality in each series. Once the taste of two successive concentrations was recognized successfully, the subject was given the previous unrecognized concentration (first reversal). The points at which concentration sequence changed from a decrease to an increase or vice versa were designated “reversals”. The procedure was terminated after five reversals, and the threshold was calculated as the mean of the concentration values of the last four reversals.
Student's t-test was used for detection of differences in the mean recognition thresholds between males and females. The χ^2 test was used for checking Hardy-Weinberg Equilibrium (HWE) for the genotype frequencies in samples to control genotyping errors, for detection of differences in genotype and allele frequencies between high and low taste recognition threshold groups. Yates'χ^2 test was used when the number was less than 10. The mean values (the center±S.E. of gaussian curve on X-axis) in the distribution of recognition thresholds defined by TAS1R1/TAS1R3 haplotypes (TAS1R1-372A/TAS1R3-757R homozygotes, TAS1R1-372T/TAS1R3-757R homozygotes, homo- and heterozygotes containing TAS1R3-757C) were calculated using gauss fit function of Origin 5.0 (OriginLab Corp). For Ca^2+ imaging analysis, data were normalized to response to 10 µM ISO, and mean values (±S.E.) were calculated from 10∼18 independent analyses. EC50 values were calculated from individual cumulative concentration-response data using sigmoid fit functions of Origin 5.0. One factor ANOVAs were conducted for detection of differences in the distributions of recognition thresholds for umami substances among 3 groups defined by TAS1R1/TAS1R3 haplotypes, and in the responses to 5, 20 and 50 mM MSG or 0.3, 5 and 50 mM M+I among TAS1R1/TAS1R3 variants in Ca^2+ imaging analysis. When the ANOVA was significant, post-hoc Student's t-test or Fisher's PLSD test was performed to compare individual means at each umami compound or concentration. Significance level was 0.05.

## N[C@@H](CCC(=O)O)C(=O)[O-].[Na+] [MSG, monosodium glutamate]
254 Japanese subjects [1]
  difference of taste thresholds between taster and hypotaster groups: about 5 fold
254 Japanese subjects [2]; AR homozygotes (372A/757R)
  mean recognition threshold by Gaussian fit analysis: 7.51 ± 0.44 mM
254 Japanese subjects [2]; AR homozygotes (372A/757R, n = 84)
  mean (±S.E.) recognition threshold: 6.23 ± 0.45 mM
254 Japanese subjects [2]; TR homozygotes (372T/757R)
  mean recognition threshold by Gaussian fit analysis: 4.38 ± 0.29 mM
254 Japanese subjects [2]; TR homozygotes (372T/757R, n = 37)
  mean (±S.E.) recognition threshold: 4.65 ± 0.47 mM
254 Japanese subjects [2]; TR<AR<TAS1R3-757C
  difference of mean recognition thresholds among 3 groups divided by TAS1R1-A372T and TAS1R3-R757C haplotypes: 2∼3 fold
254 Japanese subjects [2]; all subjects (254 Japanese, both genders)
  mean (±S.E.) recognition threshold: 7.66 ± 0.43 mM
254 Japanese subjects [2]; female subjects
  mean recognition threshold: 6.91 ± 0.62 mM
254 Japanese subjects [2]; homo- and heterozygotes containing TAS1R3-757C (n = 39)
  mean (±S.E.) recognition threshold: 8.43 ± 0.98 mM
254 Japanese subjects [2]; homo- and heterozygotes containing TAS1R3-757C
  mean recognition threshold by Gaussian fit analysis: 8.60 ± 0.20 mM
254 Japanese subjects [2]; male subjects
  mean recognition threshold: 8.27 ± 0.60 mM

Reference: article PMC2725291, “Genetic and Molecular Basis of Individual Differences in Human Umami Taste Perception” (PLoS ONE, 2009)
